The source of these data is patent US9072734B2, “Quaternary ammonium salt compounds” (Teijin Pharma Limited, priority 2009, dated 2015).

Counter-ions that a name gives are not always drawn.

The EC50 is the concentration at which the effect is half-maximal. Usually IC50 stands for the midpoint of a concentration-inhibition curve.

The target in experiment [1] is T1, human β2 adrenergic receptor (Homo sapiens, UniProt P07550).
T1 construct: expressed in transfected cells; host or cells: CHO-K1
Briefly: Whole-cell cAMP Flashplate assay using CHO-K1 cells stably expressing human β2 adrenergic receptor. The class given is cell-based. Conditions: cAMP production. The procedure: The β2 adrenergic receptor, which couples to Gs proteins, activates adenylate cyclase upon agonist binding to the receptor. As a result, cAMP is produced in cells. The activation ability of the β2 adrenergic receptor can be measured by measuring the amount of the cAMP with cAMP-Screen System (Applied Biosystems).
CHO-K1 cells expressing the human β2 adrenergic receptor suspended in Ham's F-12 media containing 10% FBS were seeded into 96-well plates at a volume of 100 μL/well. Next day, they were washed with 200 μL PBS(−), to which 80 μL of 0.5 mM IBMX solution (Ham's F-12 media containing 0.05% BSA) was then added, followed by incubation for 20 minutes at 37° C. in the presence of 5% carbon dioxide. 20 μL of 9 concentrations of test compound solutions (0.5 mM IBMX solution containing 1% DMSO) prepared at concentrations in a range of 0.01-1000 nM with 2-fold serial dilution) were added, followed by incubation for 20 minutes at 37° C. in the presence of 5% carbon dioxide. Then, 100 μL of Assay/Lysis Buffer (a reagent that comes with cAMP Screen System) was added. The cells were lysed by pipetting, further incubated for 30 minutes at 37° C., and then frozen at −80° C. After several days, samples, thawed at room temperature, were treated according to the protocol of cAMP Screen System, and then chemiluminescence was measured by EnVision (PerkinElmer, Inc.). The amount of cAMP was calculated from the standard curve for the standard attached to cAMP Screen System.
The concentrations of a test compound at which 50% of its maximal effect is reached (EC50 values) were analyzed by a four-parameter logistic model using XLfit4 (IDBS, Ltd.) for the amounts of cAMP production at different concentrations of the test compounds.

Experiment [2] has as its target T2, human M3 muscarinic receptor (Homo sapiens, UniProt P20309).
T2 construct: expressed in transfected cells; host or cells: CHO-K1
Nature of the experiment: Inhibitory effect on methacholine-induced calcium influx, FLIPR assay, CHO-K1 cells stably expressing the human M3 muscarinic receptor. The class given is cell-based. Conditions: inhibition of calcium influx induced by methacholine. The source says: Muscarinic receptor subtypes (M1, M3 and M5 receptors), which couple to Gq proteins, activate the phospholipase C (PLC) pathway upon agonist binding to the receptor. As a result, the activated PLC hydrolyzes phosphatidyl inositol diphosphate (PIP2) to diacyl glycerol (DAG) and […] (IP3), which in turn generates calcium release from intracellular stores, i.e., endoplasmic and sarcoplasmic reticula. By utilizing FLIPR (Molecular Devices, Inc.) assay in which a calcium sensitive dye (Component A) is used that fluoresces when free calcium binds, the increase in intracellular calcium is measured on the basis of the change in the fluorescence intensity.
Methacholine was added to CHO-K1 cells stably expressing the human M3 muscarinic receptor to induce calcium influx and evaluate the inhibitory effect of test compounds. In the experiment, a FLIPR Calcium assay kit (Molecular Devices, Inc.) was used.
CHO-K1 cells stably expressing the human M3 muscarinic receptor suspended in Ham's F-12 media (Invitrogen, Co.) containing 10% fetal bovine serum (FBS) were seeded into 96-well FLIPR plates at a volume of 100 μL/well. Next day, 60 μL/well of Non-wash-dye solution (Hank's buffered salt solution, HBSS, containing 20 mM HEPES and 6.5 mM probenecid) was added to the cells, which were then incubated for an hour at 37° C. in the presence of 5% carbon dioxide. 20 μL of 10 concentrations of test compound solutions (HBSS containing 1% DMSO, 20 mM HEPES, 2.5 mM probenecid and 0.05% bovine serum albumin, BSA) prepared at concentrations in a range of 0.01-1000 nM with 2-fold serial dilution) were added, followed by incubation for 180 seconds. Then, 20 μL of 30 nM methacholine solution (HBSS containing 20 mM HEPES, 2.5 mM probenecid and 0.05% bovine serum albumin, BSA) was added, and fluorescence intensity was traced by the intracellular calcium influx measuring device FLIPR 96 (Molecular Devices, Inc.) for 170 seconds. The difference between the lowest and the highest values of the fluorescence intensity (FI) over the period of the measurement was used as a measured value. The percentages of inhibition by the test compounds were calculated according to the following formula from the measured value of the methacholin-added and test compound non-added sample (FIpositive), the measured value of the methacholin non-added and test compound non-added sample (FInegative), and the measured value of the methacholin-added and test compound-added sample (FItest). (%) Percentage of inhibition by test compound=[(1−(FItest−FInegative)/(FIpositive−FInegative)]×100
The 50% inhibitory concentrations (IC50 values) of test compounds were analyzed by a four-parameter logistic model using XLfit4 (IDBS, Ltd.) for the percentage of the inhibition by different concentrations of test compounds.

T2 sequence (P20309 whole entry): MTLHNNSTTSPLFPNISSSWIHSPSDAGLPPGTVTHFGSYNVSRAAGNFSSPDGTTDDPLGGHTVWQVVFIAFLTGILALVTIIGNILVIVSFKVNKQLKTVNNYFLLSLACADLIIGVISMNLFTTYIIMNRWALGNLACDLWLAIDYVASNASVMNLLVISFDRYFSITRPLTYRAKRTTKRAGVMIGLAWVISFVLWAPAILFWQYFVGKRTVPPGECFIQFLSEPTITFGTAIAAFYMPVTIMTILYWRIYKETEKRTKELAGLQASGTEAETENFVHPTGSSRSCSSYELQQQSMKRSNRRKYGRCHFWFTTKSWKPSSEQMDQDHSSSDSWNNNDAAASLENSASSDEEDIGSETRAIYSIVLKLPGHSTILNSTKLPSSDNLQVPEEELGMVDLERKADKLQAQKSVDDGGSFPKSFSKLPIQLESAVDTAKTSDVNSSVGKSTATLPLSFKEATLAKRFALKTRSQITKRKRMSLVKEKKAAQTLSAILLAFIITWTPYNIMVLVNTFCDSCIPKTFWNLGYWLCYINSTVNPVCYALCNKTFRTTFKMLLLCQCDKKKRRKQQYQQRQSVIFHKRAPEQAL
T1 sequence (P07550 whole entry): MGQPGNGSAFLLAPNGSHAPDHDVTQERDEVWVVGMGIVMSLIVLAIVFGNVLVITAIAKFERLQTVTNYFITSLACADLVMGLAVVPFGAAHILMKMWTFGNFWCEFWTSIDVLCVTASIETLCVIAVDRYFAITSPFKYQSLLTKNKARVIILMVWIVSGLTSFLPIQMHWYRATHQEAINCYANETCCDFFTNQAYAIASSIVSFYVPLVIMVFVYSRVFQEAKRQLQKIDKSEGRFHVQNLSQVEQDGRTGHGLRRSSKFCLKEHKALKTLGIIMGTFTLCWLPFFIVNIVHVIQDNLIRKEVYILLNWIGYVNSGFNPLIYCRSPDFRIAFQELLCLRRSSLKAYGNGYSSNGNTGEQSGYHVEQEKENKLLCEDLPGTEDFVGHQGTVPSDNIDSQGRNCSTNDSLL

In experiment [1], `C[N+]1(C)[C@@H]2CC(OC(=O)Nc3cc(CCCCC(=O)Nc4ccc(CNC[C@H](O)c5ccc(O)c6[nH]c(=O)ccc56)cc4)ccc3-c3ccccc3)C[C@H]1[C@@H]1O[C@@H]12` (stereo partly drawn) [Example 50, (1R,2R,4S,5S,7S)-7-({[5-(4-{[4-({[(2R)-2-hydroxy-2-(8-hydroxy-2-oxo-1,2-dihydroquinolin-5-yl)ethyl]amino}methyl)phenyl]carbamoyl}butyl)-2-phenylphenyl]carbamoyl}oxy)-9,9-dimethyl-3-oxa-9-azatricyclo[3.3.1.0^2,4]nonan-9-ium trifluoroacetate] registered a concentration giving a half-maximal response (EC50) of 1.7 nM. The concentration for half-maximal inhibition (IC50) in experiment [2] came to 27.6 nM.
Taken in the same sequence, the figures for `C[N+]1(C)CCC(OC(=O)Nc2cc(CNC(=O)COc3ccc(CNC[C@H](O)c4ccc(O)c5[nH]c(=O)ccc45)cc3)ccc2-c2ccccc2)CC1` [Example 81, 4-({[5-({2-[4-({[(2R)-2-hydroxy-2-(8-hydroxy-2-oxo-1,2-dihydroquinolin-5-yl)ethyl]amino}methyl)phenoxy]acetamide}methyl)-2-phenylphenyl]carbamoyl}oxy)-1,1-dimethylpiperidin-1-ium trifluoroacetate] were 8.7 nM and 25.1 nM.
For `C[N+]1(C)CCC(OC(=O)Nc2cc(CCC(=O)Nc3ccc(CCNC[C@H](O)c4ccc(O)c5[nH]c(=O)ccc45)cc3)ccc2-c2ccccc2)CC1` [Example 63, 4-({[5-(2-{[4-(2-{[(2R)-2-hydroxy-2-(8-hydroxy-2-oxo-1,2-dihydroquinolin-5-yl)ethyl]amino}ethyl)phenyl]carbamoyl}ethyl)-2-phenylphenyl]carbamoyl}oxy)-1,1-dimethylpiperidin-1-ium trifluoroacetate], in that order: 5.6 nM and 41.7 nM.
In experiment [1], `C[N+]1(C)[C@@H]2CC(OC(=O)Nc3cc(CCC(=O)Nc4ccc(CNC[C@H](O)c5ccc(O)c6[nH]c(=O)ccc56)cc4Cl)ccc3-c3ccccc3)C[C@H]1[C@@H]1O[C@@H]12` (stereo partly drawn) [Example 44, (1R,2R,4S,5S,7S)-7-({[5-(2-{[2-chloro-4-({[(2R)-2-hydroxy-2-(8-hydroxy-2-oxo-1,2-dihydroquinolin-5yl)ethyl]amino}methyl)phenyl]carbamoyl}ethyl)-2-phenylphenyl]carbamoyl}oxy)-9,9-dimethyl-3-oxa-9-azatricyclo[3.3.1.0^2,4]nonan-9-ium trifluoroacetate] came in with a half-maximal effective concentration (EC50) of 1.7 nM. Further, the IC50 in experiment [2] was 13.9 nM.
Taken in the same sequence, the figures for `C[N+]1(C)CCC(OC(=O)Nc2cc(CCCCOc3ccc(CNC[C@H](O)c4ccc(O)c5[nH]c(=O)ccc45)cc3)ccc2-c2ccccc2)CC1` [Example 61, 4-{[(5-{4-[4-({[(2R)-2-hydroxy-2-(8-hydroxy-2-oxo-1,2-dihydroquinolin-5-yl)ethyl]amino}methyl)phenoxy]butyl}-2-phenylphenyl)carbamoyl]oxy}-1,1-dimethylpiperidin-1-ium trifluoroacetate] were 8.7 nM and 37.8 nM.
Taken in the same sequence, the figures for `COc1cc(CNC[C@H](O)c2ccc(O)c3[nH]c(=O)ccc23)ccc1NC(=O)CCc1ccc(-c2ccccc2)c(NC(=O)OC2CC[N+](C)(C)CC2)c1` [Example 10, 4-({[5-(2-{[4-({[(2R)-2-hydroxy-2-(8-hydroxy-2-oxo-1,2-dihydroquinolin-5-yl)ethyl]amino}methyl)-2-methoxyphenyl]carbamoyl}ethyl)-2-phenylphenyl]carbamoyl}oxy)-1,1-dimethylpiperidin-1-ium trifluoroacetate] were 3.9 nM and 10.5 nM.
For `C[N+]1(C)CCC(OC(=O)Nc2cc(CCCCC(=O)Nc3ccc(CNC[C@H](O)c4ccc(O)c5[nH]c(=O)ccc45)cc3)ccc2-c2ccccc2)CC1` [Example 49, 4-({[5-(4-{[4-({[(2R)-2-hydroxy-2-(8-hydroxy-2-oxo-1,2-dihydroquinolin-5-yl)ethyl]amino}methyl)phenyl]carbamoyl}butyl)-2-phenylphenyl]carbamoyl}oxy)-1,1-dimethylpiperidin-1-ium trifluoroacetate], in that order: 2.3 nM and 13.9 nM.
As for `C[N+]1(C)CCC(OC(=O)Nc2cc(CCCCCCCCCNC[C@H](O)c3ccc(O)c4[nH]c(=O)ccc34)ccc2-c2ccccc2)CC1` [Example 76, 4-({[5-(9-{[(2R)-2-hydroxy-2-(8-hydroxy-2-oxo-1,2-dihydroquinolin-5-yl)ethyl]amino}nonyl)-2-phenylphenyl]carbamoyl}oxy)-1,1-dimethylpiperidin-1-ium trifluoroacetate], the EC50 in experiment [1] is 14.1 nM. The IC50 in experiment [2] was determined as 38 nM.
In experiment [1], `C[N+]1(C)CCC(OC(=O)Nc2cc(CCCC(=O)Nc3ccc4cc(CNC[C@H](O)c5ccc(O)c6[nH]c(=O)ccc56)ccc4c3)ccc2-c2ccccc2)CC1` [Example 23, 4-({[5-(3-{[6-({[(2R)-2-hydroxy-2-(8-hydroxy-2-oxo-1,2-dihydroquinolin-5-yl)ethyl]amino}methyl)naphthalen-2-yl]carbamoyl}propyl)-2-phenylphenyl]carbamoyl}oxy)-1,1-dimethylpiperidin-1-ium trifluoroacetate] came in with an EC50 of 2.6 nM. Further, in experiment [2], the half-maximal inhibitory concentration (IC50) was found to be 34.3 nM.
For `Cc1cc(CNC[C@H](O)c2ccc(O)c3[nH]c(=O)ccc23)ccc1NC(=O)CCCc1ccc(-c2ccccc2)c(NC(=O)OC2CC[N+](C)(C)CC2)c1` [Example 22, 4-({[5-(3-{[4-({[(2R)-2-hydroxy-2-(8-hydroxy-2-oxo-1,2-dihydroquinolin-5-yl)ethyl]amino}methyl)-2-methylphenyl]carbamoyl}propyl)-2-phenylphenyl]carbamoyl}oxy)-1,1-dimethylpiperidin-1-ium trifluoroacetate], in that order: 2.2 nM and 15.8 nM.
Take `C[N+]1(C)[C@@H]2C[C@@H](OC(=O)Nc3cc(CCCC(=O)Nc4ccc(CNC[C@H](O)c5ccc(O)c6[nH]c(=O)ccc56)cc4)ccc3-c3ccccc3)C[C@H]1[C@@H]1O[C@@H]12` [Example 33, (1R,2R,4S,5S,7S)-7-({[5-(3-{[4-({[(2R)-2-hydroxy-2-(8-hydroxy-2-oxo-1,2-dihydroquinolin-5-yl)ethyl]amino}methyl)phenyl]carbamoyl}propyl)-2-phenylphenyl]carbamoyl}oxy)-9,9-dimethyl-3-oxa-9-azatricyclo[3.3.1.0^2,4]nonan-9-ium trifluoroacetate]: in experiment [1], the response was half-maximal at 4.6 nM (EC50). For the same compound, the IC50 in experiment [2] came to 22.1 nM.
Taken in the same sequence, the figures for `CCOc1cc(NC(=O)CCc2ccc(-c3ccccc3)c(NC(=O)OC3C[C@@H]4[C@H]5O[C@H]5[C@H](C3)[N+]4(C)C)c2)ccc1CNC[C@H](O)c1ccc(O)c2[nH]c(=O)ccc12` (stereo partly drawn) [Example 47, (1R,2R,4S,5S,7S)-7-({[5-(2-{[4-({[(2R)-2-hydroxy-2-(8-hydroxy-2-oxo-1,2-dihydroquinolin-5-yl)ethyl]amino}methyl)-3-ethoxyphenyl]carbamoyl}ethyl)-2-phenylphenyl]carbamoyl}oxy)-9,9-dimethyl-3-oxa-9-azatricyclo[3.3.1.0^2,4]nonan-9-ium trifluoroacetate] were 1.9 nM and 16.5 nM.
